Drawing on PubChem BioAssay (NCI), this text covers TGI and GI50 for 12 compounds.

The structures appear in SMILES notation.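 Growth conditions: 96-well plates. Treatment: test compound, 48 hours, 5 concentrations. Analysis: linear interpolation between bracketing concentrations; unreached endpoints set to highest concentration. Here, GI50 denotes the concentration required for 50% inhibition of growth. Definition used: TGI = concentration required for complete inhibition of growth.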

What all share (assay): DTP human tumour cell line panel, 48 h
The test system of assay [1] is HT29 colon.
Assay [2] concerns RXF 393 renal.
Assay [3] deals with OVCAR-4 ovarian.
For assay [4], the system named is M14 melanoma.
The subject of assay [5] is RPMI-8226 leukemia.
Assay [6] relates to DU-145 prostate.
Assay [7] deals with HCT-15 colon.
Assay [8] deals with OVCAR-8 ovarian.
For assay [9], the system named is COLO 205 colon.
In assay [10] the test system is ACHN renal.

By TGI is commonly meant the concentration at which net growth stops. The low end stands for greater sensitivity of the cells, the high end for lower sensitivity of the cells. With `CCOC(=O)Nc1n[nH]nc1Cl`, the TGI in assay [1], in assay [2], in assay [3], in assay [4], in [5] and in [6] was more than 100 µM in each case. Moreover, the TGI in assay [7], in assay [8] and in assay [9] was more than 100 µM each time.
Consider `O=C1Nc2ccccc2/C1=C\c1c(-c2ccccc2)nc2n1CCS2`, for which the TGI in assay [10] is more than 100 µM; in [1], 39.9 µM; in assay [2] it was 47.2 µM; in [3], more than 100 µM; in [4], 87.9 µM; in assay [5] it was 65.8 µM. Also, the TGI in [6] was 40.7 µM; in assay [7], 52.3 µM; in assay [8], more than 100 µM; in assay [9], 81.3 µM.
As for `NC(Cc1ccccc1)c1nn[nH]n1` (stereo unspecified), the concentration for total growth inhibition (TGI) in assay [10], in assay [1], in assay [2], in assay [3], in assay [4] and in assay [5] was more than 100 µM in each case. The TGI in [6], in assay [7], in [8] and in assay [9] was more than 100 µM throughout.
For `Fc1cccc(C2SCc3nc4cc5ccccc5cc4n32)c1` (stereo unspecified), the TGI in assay [10], in assay [1], in assay [2], in [3], in assay [4] and in assay [5] was more than 100 µM each time. Also, the TGI in assay [6], in assay [7], in [8] and in assay [9] was more than 100 µM throughout.
For the compound `CCCCCCCCCCCCCCCC(=O)Nc1ccn(C2CCC(COP(=O)(O)OCC3OC(n4cc(F)c(=O)[nH]c4=O)CC3OC(C)=O)O2)c(=O)n1` (stereo unspecified), the TGI in assay [10] was more than 100 µM; in [1] it was 32.4 µM; in assay [2] it was more than 100 µM; in assay [3], more than 86.5 µM; in assay [4], 28.1 µM; in assay [5] it was 52.9 µM. The TGI in [6] was more than 100 µM; in [7] it was more than 100 µM; in assay [8], more than 72.2 µM; in assay [9], 28.5 µM.
Regarding `CCCCCCCC(CC(=O)NC(CO)C(=O)NC(CO)CC(C)C)OC(=O)CC(CCCCCCC)OC(=O)CC(CCCCCCC)OC1OC(C)C(O)C(OC2OC(C)C(O)C(O)C2O)C1O` (stereo unspecified), the TGI in [10] amounted to 25.5 µM; in [1] it was 21.8 µM; in assay [2] it was 31.2 µM; in [3], 28 µM; in assay [4], 17.5 µM; in assay [5], 8.96 µM. Also, the TGI in [6] was 25.3 µM; in assay [7], 34.6 µM; in assay [8], 34.4 µM; in [9], 22.8 µM.
For the compound `Cc1cc(C)c(S(=O)(=O)N(CCCN)OCCON(CCCN)S(=O)(=O)c2c(C)cc(C)cc2C)c(C)c1`, the TGI in assay [10] was 66.1 µM; in assay [1], 40.4 µM; in assay [2], more than 100 µM; in assay [3] it was 10.3 µM; in assay [4], more than 100 µM; in assay [5], 6.33 µM. For the same compound, the TGI was more than 100 µM in [6], 70.5 µM in [7], 47.7 µM in assay [8] and more than 100 µM in assay [9].
Consider `CC(Cc1cccc2c1Nc1ccccc1S2)N(C)CCO` (stereo unspecified), for which the total growth inhibition concentration (TGI) in assay [10], in assay [1], in assay [2], in assay [3], in assay [4] and in assay [6] was more than 100 µM throughout. Also, the total growth inhibition concentration (TGI) in [7], in [8] and in assay [9] was more than 100 µM each time.
Turning to `CCOC(=O)C1=CNC(C(=O)OCC)C1c1cccn1-c1ccccc1` (stereo unspecified), the total growth inhibition concentration (TGI) in assay [10] was more than 100 µM; in assay [1] it was 50.5 µM; in [2] it was 69 µM; in assay [3], more than 100 µM; in [4], more than 100 µM; in assay [6], more than 100 µM. Also, the figures for the TGI in assay [7], in assay [8] and in assay [9] were more than 100 µM, more than 100 µM and 68.2 µM, respectively.
On to `C(=N\NC1=NCCN1)/c1cccc2cc3ccncc3nc12`, for which the total growth inhibition concentration (TGI) in [10] came to 13.6 µM; in [1], 10.5 µM; in assay [2], 13.2 µM; in assay [3], 12.3 µM; in assay [4], 28.3 µM; in assay [5], 4.44 µM. The TGI in assay [6] stood at 19.9 µM; in [7], 13.1 µM; in assay [8] it was 5.15 µM; in assay [9], 15.5 µM.
For the compound `COC(=O)CC(CNC(=O)OCc1ccccc1)OCc1ccc(OC)cc1` (stereo unspecified), the TGI in [10], in assay [2], in assay [3], in assay [4], in assay [5] and in [6] was more than 100 µM each time. Besides, the TGI in assay [7], in assay [8] and in [9] was more than 100 µM in each case.
As usually defined, the GI50 is the concentration that inhibits growth by half. For `COc1cc(/C=C/C(=O)c2ccc(F)cc2)ccc1OCCCCCOc1cc2c(cc1OC)C(=O)N1CCCC1C=N2` (stereo unspecified), the GI50 in [10] was 19.7 nM; in assay [1] it was less than 16 nM; in [2] it was 110 nM; in [3], 26.5 nM; in [4] it was 49.1 nM; in [5] it was 10.1 nM. Besides, the GI50 was 24.9 nM in [6], 58.8 nM in assay [7], 25.3 nM in [8] and less than 15.1 nM in assay [9]. For the same compound, the TGI in [10] is 0.368 µM; in assay [1], 1.48 µM; in assay [2], 0.283 µM; in assay [3], more than 100 µM; in assay [4] it was 0.266 µM; in assay [5], 0.0383 µM. The TGI came to 0.0579 µM in assay [6], 1.41 µM in [7], 3.28 µM in [8] and 0.043 µM in assay [9].
